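The compound was tested at five concentrations on cells cultured in 96-well plates, with a 48-hour exposure period. GI50 = concentration required for 50% inhibition of growth.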 Calls of active or inactive are those of the source. Cut-off read from the data, not from the text of the source: active = GI50 up to about 1.1 µM and inactive = higher.
What was measured:
Test in all cases: NCI anticancer screen, dose series, 48 h
786-0 = test system: 786-0
A498 = test system: A498
A549 = test system: A549
ACHN = test system: ACHN
CAKI-1 = test system: CAKI-1
CCRF-CEM = test system: CCRF-CEM
COLO 205 = test system: COLO 205
DLD-1 = test system: DLD-1
DMS-114 = test system: DMS-114
DMS-273 = test system: DMS-273
EKVX = test system: EKVX
HCC 2998 = test system: HCC 2998
HCT-116 = test system: HCT-116
HCT-15 = test system: HCT-15
HL-60 = test system: HL-60
HOP-18 = test system: HOP-18
HOP-62 = test system: HOP-62
HOP-92 = test system: HOP-92
HT-29 = test system: HT-29
IGROV-1 = test system: IGROV-1
K562 = test system: K562
KM-20L2 = test system: KM-20L2
KM12 = test system: KM12
LOX IMVI = test system: LOX IMVI
LXFL 529 = test system: LXFL 529
M14 = test system: M14
M19-MEL = test system: M19-MEL
MOLT-4 = test system: MOLT-4
Malme-3M = test system: Malme-3M
NCI-H226 = test system: NCI-H226
NCI-H23 = test system: NCI-H23
NCI-H460 = test system: NCI-H460
NCI-H522 = test system: NCI-H522
OVCAR-3 = test system: OVCAR-3
OVCAR-4 = test system: OVCAR-4
OVCAR-5 = test system: OVCAR-5
OVCAR-8 = test system: OVCAR-8
RPMI-8226 = test system: RPMI-8226
RXF 393 = test system: RXF 393
RXF 631 = test system: RXF 631
SF-268 = test system: SF-268
SF-295 = test system: SF-295
SF-539 = test system: SF-539
SK-MEL-28 = test system: SK-MEL-28
SK-MEL-2 = test system: SK-MEL-2
SK-MEL-5 = test system: SK-MEL-5
SK-OV-3 = test system: SK-OV-3
SN12C = test system: SN12C
SNB-19 = test system: SNB-19
SNB-75 = test system: SNB-75
SNB-78 = test system: SNB-78
SW-620 = test system: SW-620
TK-10 = test system: TK-10
U-251 = test system: U-251
UACC-257 = test system: UACC-257
UACC-62 = test system: UACC-62
UO-31 = test system: UO-31
XF498 = test system: XF498

## Cc1nc(C(N)=S)sc1C(=O)/C=C/c1c(O)ccc2ccccc12
786-0
  GI50: > 74.3 µM (inactive)
A498
  GI50: > 100 µM (inactive)
A549
  GI50: > 100 µM (inactive)
ACHN
  GI50: > 100 µM (inactive)
CAKI-1
  GI50: > 87.5 µM (inactive)
CCRF-CEM
  GI50: 21.6 µM (inactive)
COLO 205
  GI50: > 100 µM (inactive)
DLD-1
  GI50: 72.4 µM (inactive)
DMS-114
  GI50: 32.5 µM (inactive)
DMS-273
  GI50: > 100 µM (inactive)
EKVX
  GI50: > 100 µM (inactive)
HCC 2998
  GI50: > 100 µM (inactive)
HCT-116
  GI50: 80.2 µM (inactive)
HCT-15
  GI50: > 95.9 µM
HL-60
  GI50: 22.1 µM (inactive)
HOP-18
  GI50: > 100 µM (inactive)
HOP-62
  GI50: > 100 µM (inactive)
HOP-92
  GI50: > 74.1 µM (inactive)
HT-29
  GI50: > 100 µM (inactive)
IGROV-1
  GI50: > 100 µM (inactive)
K562
  GI50: 25.9 µM (inactive)
KM-20L2
  GI50: > 100 µM (inactive)
KM12
  GI50: 31.3 µM (inactive)
LOX IMVI
  GI50: 26 µM (inactive)
LXFL 529
  GI50: 30 µM (inactive)
M14
  GI50: > 100 µM (inactive)
M19-MEL
  GI50: 13.8 µM (inactive)
MOLT-4
  GI50: 21.2 µM (inactive)
Malme-3M
  GI50: > 90.2 µM (inactive)
NCI-H226
  GI50: > 100 µM (inactive)
NCI-H23
  GI50: > 67.5 µM (inactive)
NCI-H460
  GI50: > 100 µM (inactive)
NCI-H522
  GI50: 26.9 µM (inactive)
OVCAR-3
  GI50: 36.6 µM (inactive)
OVCAR-4
  GI50: > 100 µM (inactive)
OVCAR-5
  GI50: > 100 µM (inactive)
OVCAR-8
  GI50: 68.5 µM (inactive)
RPMI-8226
  GI50: 29.4 µM (inactive)
RXF 393
  GI50: 31.8 µM (inactive)
RXF 631
  GI50: > 100 µM (inactive)
SF-268
  GI50: 28.5 µM (inactive)
SF-295
  GI50: 51.5 µM (inactive)
SF-539
  GI50: 70.1 µM (inactive)
SK-MEL-28
  GI50: > 71.6 µM (inactive)
SK-MEL-2
  GI50: > 100 µM (inactive)
SK-MEL-5
  GI50: 32.4 µM (inactive)
SK-OV-3
  GI50: > 100 µM (inactive)
SN12C
  GI50: > 88.1 µM (inactive)
SNB-19
  GI50: > 100 µM (inactive)
SNB-75
  GI50: 53.7 µM (inactive)
SNB-78
  GI50: > 100 µM (inactive)
SW-620
  GI50: 39.4 µM (inactive)
TK-10
  GI50: > 100 µM (inactive)
U-251
  GI50: > 100 µM (inactive)
UACC-257
  GI50: > 75.9 µM (inactive)
UACC-62
  GI50: 29.6 µM (inactive)
UO-31
  GI50: 58.2 µM (inactive)
XF498
  GI50: > 100 µM (inactive)

Reference: ChEMBL document CHEMBL1201862, “PubChem BioAssay data set” (2004)
